GI50 and TGI data for eight molecules are collected here from PubChem BioAssay (NCI).

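Five compound concentrations were applied to cells in 96-well plates for 48 hours; endpoints were derived by simple linear interpolation of the resulting dose-response curve. Here, GI50 denotes the concentration required for 50% inhibition of growth. The concentration for full growth arrest is given as TGI.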

Some test systems named below: OVCAR-4 ovarian; RXF 393 renal; SN12C renal; UACC-62 melanoma; CCRF-CEM leukemia; COLO 205 colon; SK-MEL-5 melanoma; SK-MEL-2 melanoma; HCT-15 colon; HOP-92 NSCLC.
Assay in all cases: DTP human tumour cell line panel, 48 h

Take `O=C(O)c1cc2c(c3ccsc13)-c1ccccc1CC2`: the GI50 (in general, the concentration that inhibits growth by half) with OVCAR-4 ovarian is 23.3 µM; in the experiment with RXF 393 renal it was 36.6 µM; with SN12C renal, 32.1 µM; with UACC-62 melanoma it was 33.9 µM; in the experiment with CCRF-CEM leukemia, 37.6 µM; in the experiment with COLO 205 colon it was 40.5 µM. Besides, the GI50 is 31.3 µM in the experiment with SK-MEL-5 melanoma, 26.5 µM in the experiment on SK-MEL-2 melanoma, 39 µM with HCT-15 colon and 30.3 µM in the experiment on HOP-92 NSCLC. In addition, the TGI with OVCAR-4 ovarian, in the experiment on RXF 393 renal, in the experiment on SN12C renal, in the experiment with UACC-62 melanoma, with CCRF-CEM leukemia and with COLO 205 colon was over 100 µM throughout. The total growth inhibition concentration (TGI) (commonly the concentration giving total growth inhibition) in the experiment on SK-MEL-5 melanoma is over 100 µM; in the experiment on SK-MEL-2 melanoma, 87.5 µM; in the experiment on HCT-15 colon it was over 100 µM; in the experiment with HOP-92 NSCLC, over 100 µM.
`O=C(Nc1cccc([N+](=O)[O-])c1)c1cc2ccccc2cc1O`: the GI50 in the experiment with OVCAR-4 ovarian is 2.61 µM; with RXF 393 renal, 2.57 µM; in the experiment with SN12C renal, 1.17 µM; in the experiment on UACC-62 melanoma, 0.685 µM; in the experiment with CCRF-CEM leukemia, 2.38 µM; in the experiment with COLO 205 colon, 1.88 µM. For the same molecule, the GI50 with SK-MEL-5 melanoma is 1.14 µM; in the experiment on SK-MEL-2 melanoma, 0.876 µM; with HCT-15 colon, 2.75 µM; in the experiment on HOP-92 NSCLC it was 0.422 µM. Besides, the TGI with OVCAR-4 ovarian was over 100 µM; in the experiment on RXF 393 renal, 9.05 µM; with SN12C renal, 7.78 µM; with CCRF-CEM leukemia, 6.66 µM; with COLO 205 colon, 3.44 µM; with SK-MEL-5 melanoma, 3.56 µM. Moreover, the TGI in the experiment with SK-MEL-2 melanoma was 2.83 µM; with HCT-15 colon, 28.3 µM; with HOP-92 NSCLC, 4.41 µM.
Turning to `CN(C)c1ccc(N=C(C#N)c2nc(N)nc(N3CCN(c4ccccc4)CC3)n2)cc1`, the GI50 with OVCAR-4 ovarian is 18.9 µM; in the experiment on RXF 393 renal it was 22.1 µM; in the experiment on SN12C renal, over 50 µM; in the experiment on UACC-62 melanoma it was over 50 µM; with CCRF-CEM leukemia, over 50 µM; with COLO 205 colon it was over 42.4 µM. For the same molecule, the GI50 with SK-MEL-5 melanoma is 24.5 µM; in the experiment with SK-MEL-2 melanoma, over 50 µM; in the experiment on HCT-15 colon, over 28.5 µM; with HOP-92 NSCLC, 49.8 µM. The TGI is over 34.1 µM in the experiment with OVCAR-4 ovarian; 39.1 µM in the experiment with RXF 393 renal; over 50 µM in the experiment with SN12C renal; over 50 µM in the experiment with UACC-62 melanoma; over 50 µM in the experiment with CCRF-CEM leukemia; over 50 µM in the experiment on COLO 205 colon. For the same molecule, the TGI was over 47.5 µM in the experiment with SK-MEL-5 melanoma, over 50 µM in the experiment with SK-MEL-2 melanoma, over 50 µM in the experiment with HCT-15 colon and over 50 µM with HOP-92 NSCLC.
As to `CC(C)(O)CCC(O)C(C)(O)C1CCC2(O)C3=CC(=O)C4(O)CC(O)C(O)CC4(C)C3CCC12C` (centres undefined) (tested in a mixture with another compound), the concentration for total growth inhibition (TGI) with OVCAR-4 ovarian, with RXF 393 renal, with SN12C renal, in the experiment on UACC-62 melanoma, in the experiment on CCRF-CEM leukemia and in the experiment with COLO 205 colon was over 100 µM in each case. Moreover, the total growth inhibition concentration (TGI) in the experiment with SK-MEL-5 melanoma, with SK-MEL-2 melanoma, with HCT-15 colon and with HOP-92 NSCLC was over 100 µM throughout.
`N#Cc1ncc(N2C(=O)C3(CCC3)N(c3ccc(OC4CCNCC4)nc3)C2=S)cc1C(F)(F)F`: the GI50 in the experiment on OVCAR-4 ovarian was 18.2 µM; in the experiment on RXF 393 renal, 12.1 µM; with SN12C renal, 15.8 µM; in the experiment on UACC-62 melanoma, 15.9 µM; in the experiment on CCRF-CEM leukemia, 13.5 µM; in the experiment with COLO 205 colon, 14.2 µM. In addition, the GI50 in the experiment with SK-MEL-5 melanoma was 17.2 µM; in the experiment with SK-MEL-2 melanoma, 15.1 µM; in the experiment on HCT-15 colon it was 13.1 µM; in the experiment with HOP-92 NSCLC, 1.11 µM. Further, the TGI in the experiment on OVCAR-4 ovarian is 44.4 µM; with RXF 393 renal, 25.8 µM; with SN12C renal, 36 µM; in the experiment on UACC-62 melanoma, 31.5 µM; in the experiment with CCRF-CEM leukemia, 39.1 µM; with COLO 205 colon it was 28.3 µM. In addition, the TGI in the experiment with SK-MEL-5 melanoma was 32 µM; in the experiment on SK-MEL-2 melanoma, 30.5 µM; in the experiment with HCT-15 colon it was 27.8 µM; in the experiment with HOP-92 NSCLC, 10.5 µM.
With `CCCCN(CCCC)C(=O)C(=O)CC(=O)/C=C/c1ccccc1`, the TGI in the experiment on OVCAR-4 ovarian, with RXF 393 renal, in the experiment with SN12C renal, with UACC-62 melanoma, in the experiment on CCRF-CEM leukemia and in the experiment with COLO 205 colon was over 100 µM in each case. Further, the TGI with SK-MEL-5 melanoma, in the experiment on SK-MEL-2 melanoma, in the experiment on HCT-15 colon and with HOP-92 NSCLC was over 100 µM throughout.
With `CS(=O)(=O)Nc1cc(-c2ccc3ncnc(Nc4cccc(Cl)c4F)c3c2)cnc1Cl`, the GI50 is 5.82 µM in the experiment on OVCAR-4 ovarian; 1.67 µM with RXF 393 renal; 3.89 µM with SN12C renal; 1.76 µM in the experiment on UACC-62 melanoma; 2.59 µM with CCRF-CEM leukemia; 4.23 µM in the experiment with COLO 205 colon. In addition, the GI50 in the experiment on SK-MEL-5 melanoma was 1.66 µM; in the experiment on SK-MEL-2 melanoma, 2.13 µM; with HCT-15 colon, 2.78 µM; with HOP-92 NSCLC, 0.672 µM. The TGI was over 100 µM in the experiment with OVCAR-4 ovarian; 4.93 µM in the experiment on RXF 393 renal; 41.2 µM in the experiment with SN12C renal; 11.7 µM with UACC-62 melanoma; over 100 µM with CCRF-CEM leukemia; 27.8 µM in the experiment with COLO 205 colon. In addition, the TGI with SK-MEL-5 melanoma was found to be 3.29 µM; in the experiment with SK-MEL-2 melanoma it was 6.79 µM; in the experiment on HCT-15 colon, 14.5 µM; in the experiment on HOP-92 NSCLC it was 5.31 µM.
For `FC(F)(F)c1cc(NC2=NCCN=C(Nc3cc(C(F)(F)F)cc(C(F)(F)F)c3)SS2)cc(C(F)(F)F)c1`, the GI50 is 3.65 µM in the experiment on OVCAR-4 ovarian; 2.66 µM in the experiment with RXF 393 renal; 3.29 µM with SN12C renal; 3.55 µM in the experiment on UACC-62 melanoma; 4.28 µM with CCRF-CEM leukemia; 3.47 µM in the experiment on COLO 205 colon. In addition, the GI50 in the experiment on SK-MEL-5 melanoma was 3.2 µM; in the experiment on SK-MEL-2 melanoma it was 4.49 µM; in the experiment with HCT-15 colon it was 3.33 µM; in the experiment with HOP-92 NSCLC it was 1.52 µM. The total growth inhibition concentration (TGI) with OVCAR-4 ovarian came to 17 µM; in the experiment with RXF 393 renal, 11.2 µM; in the experiment with SN12C renal, 13.1 µM; with UACC-62 melanoma, 14.5 µM; in the experiment with CCRF-CEM leukemia it was 27 µM; in the experiment on COLO 205 colon, 13.2 µM. In addition, the TGI in the experiment with SK-MEL-5 melanoma came out at 11.9 µM; in the experiment on SK-MEL-2 melanoma, 14.3 µM; with HCT-15 colon, 14.2 µM; in the experiment on HOP-92 NSCLC it was 5.01 µM.
